Test results as given in US11903935B2, “Inhibitors of SARM1 NADase activity and uses thereof” (Washington University, priority 2016, dated 2024).
Read-outs that look alike come from different tables or passages of the source. Values belong to the compound of their own block, whether it stands above or below them.

Key:
[1] = molecular target: human SARM1 SAM-TIR (Homo sapiens (Human), UniProt Q6SZW1); test: biochemical; settings: for ADPR Production (%) / NAD Consumption (%): single point screening at 150 μM
human SARM1 SAM-TIR, sequence (Q6SZW1 other isoform, or with tags, fused parts or gaps): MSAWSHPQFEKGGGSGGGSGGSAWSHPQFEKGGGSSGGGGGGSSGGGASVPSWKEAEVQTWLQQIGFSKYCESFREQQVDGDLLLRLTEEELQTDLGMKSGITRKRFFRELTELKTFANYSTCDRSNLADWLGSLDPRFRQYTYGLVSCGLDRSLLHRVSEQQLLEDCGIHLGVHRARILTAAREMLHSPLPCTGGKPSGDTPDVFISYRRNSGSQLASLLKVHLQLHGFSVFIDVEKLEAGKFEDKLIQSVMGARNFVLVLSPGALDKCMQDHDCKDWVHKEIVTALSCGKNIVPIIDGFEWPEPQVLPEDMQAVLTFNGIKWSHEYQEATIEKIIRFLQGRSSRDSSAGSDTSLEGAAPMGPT
Source text: When these NRK1-expressing cells are supplemented with NR, NAD+ levels are augmented and cell viability is enhanced to enable efficient production and purification of the constitutively active human SARM1 SAM-TIR protein fragment. To express SARM1 SAM-TIR, the SARM1 N-terminal auto-inhibitory domain was deleted, keeping only the initiator Met. […] The fragment encoding the SARM1 SAM-TIR protein was cloned into the FCIV expression construct by standard methods to generate the FCIV-SST vector.
NRK1-HEK293T cells were seeded onto 150 cm^2 plates at 20×10^6 cells per plate in 25 mL growth medium comprised of 90% DMEM (Gibco 11965-084) and 10% FBS (Sigma F0926). The next day, cells were transfected by first premixing 15 ug FCIV-SST SST (SAM-TIR expression plasmid from Washington University) with 45 ul X-tremeGENE 9 DNA Transfection Reagent (Roche product #06365787001) and 750 ul OptiMEM (Gibco 31985062) and then adding this mix directly to the cells. […] Forty-eight hours after transfection, cells were harvested, pelleted by centrifugation at 1,000 rpm (Eppendorf Centrifuge 5804R, 15 Amp Version), and washed once with cold PBS (0.01 M phosphate buffered saline NaCl 0.138 M; KCl 0.0027 M; pH 7.4). The cells were resuspended in 0.5 ml PBS with protease inhibitors (Complete protease inhibitor cocktail, Roche product #11873580001). Cell lysates were prepared by sonication (Misonix Microson Ultrasonic Cell Disruptor, output=3, 20 episodes of stroke). The lysates were centrifuged at 12,000×g for 10 min at 4° C. (Eppendorf Centrifuge 5415C) to remove cell debris and the aliquots of supernatant (containing SARM1 SAM-TIR protein) were stored at −80° C. for later use. Protein concentration was determined by the Bicinchoninic (BCA) method and used to normalize lysate concentrations.
Reaction mixtures were prepared on ice by mixing 10 ul of SARM1 SAM-TIR cell lysate (320 fold dilution of lysate 11-3-2016, or 80 fold lysate dilution for assessment of time dependence) in PBS (pH 7.4) with 5 ul of compound stock. Compounds were first dissolved DMSO at 10 mM (final stock concentration). A 10 point compound dilution curve was prepared first with a 20 ul to 40 ul serial dilution in DMSO, followed by a 10 fold dilution (12 ul+108 ul) in PBS.

[2] = molecular target: SARM1 TIR (Homo sapiens (Human), UniProt Q6SZW1); test: SARM1 TIR-based assay (bacterially expressed, tagged SARM1 TIR fragment on beads); assay type: biochemical; settings: for Inhibitor: inhibitor of SARM1 TIR NAD cleavage activity; for Substrate: substrate of SARM1 TIR NAD cleavage activity
SARM1 TIR, sequence (Q6SZW1 other isoform, or with tags, fused parts or gaps): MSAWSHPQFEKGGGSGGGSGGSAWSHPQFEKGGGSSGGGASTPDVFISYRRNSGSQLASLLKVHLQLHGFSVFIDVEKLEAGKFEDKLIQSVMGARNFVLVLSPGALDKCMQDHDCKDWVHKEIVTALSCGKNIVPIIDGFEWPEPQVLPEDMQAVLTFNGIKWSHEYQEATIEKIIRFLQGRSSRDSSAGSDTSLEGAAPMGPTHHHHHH
Source text: The present Example describes a SARM1 TIR-based Assay. This assay is similar to the assay described in Example 1, but allows for the identification and/or characterization of compounds that directly interact with the TIR domain, whereas the assay described in Example 1 can also identify compounds that disrupt SAM domain interactions. This assay makes use of the bacterial expression of a tagged version of the SARM1 TIR fragment that can be affinity purified. Displaying this artificial SARM1 TIR domain on a solid surface (i.e. affinity beads) generates an active NAD+ cleavage enzyme.
The TIR domain of SARM1 was tagged with a tandem STREP-TAG® at the N-terminus, and a polyhistidine tag at the C-terminus, and was cloned into a pET30a+ plasmid. The construct was then transformed into SHuffle® T7 Express Competent E. coli (New England BioLabs, Ipswich, MA) and single colonies were grown overnight. The next day, cultures were diluted in LB media, grown at 30° C. until they reached A600=0.4-0.8, when IPTG (0.5 mM final concentration) was added. The bacteria were grown for an additional 4 h, pelleted by centrifugation, washed with PBS and stored at −80° C. For protein purification, the frozen bacterial pellet was thawed on ice, resuspended in binding buffer (without protease inhibitors) and incubated with 100 μg/mL lysozyme for 15 min on ice. Protease inhibitor cocktail was then added and the cells were lysed by sonication.
The SARM1 TIR protein was first purified by Strep Tag affinity methods where bacterial lysates were incubated with […] (STREP-TACTIN®, IBA GmBH, Gottingen Germany) type 3 XT beads suspension (IBA Lifesciences) for 30 min. The beads were then washed three times with binding buffer, and bound proteins were eluted from MagStrep type 3 XT beads with 22.5 mM biotin for 25 min. Supernatant containing the eluted protein was separated from MagStrep beads, and incubated with 10 μL Co2+ DYNABEAD® (ThermoFisher Scientific, Waltham, MA) suspension for 30 min to bind SARM1-TIR proteins via the His tag. The beads were then washed at least two times with binding buffer and resuspended in 100 μL of binding buffer for NADase assay.
Ten microliters of purified SARM1-TIR laden beads were incubated with 5 μM NAD+ in reaction buffer (92.4 mM NaCl and 0.64×PBS). Reactions were carried out at 25° C. for the indicated amount of time and stopped by addition of 1M of perchloric acid (HClO4) and placing the tube on ice. NAD+ metabolites were extracted using HClO4/K2CO3 method and quantified by HPLC (see metabolite measurement below). For LC-MS/MS analysis, the extraction was performed using 50% methanol in distilled water and chloroform (see LC-MS/MS metabolite measurement below). […] Select potent inhibitors (622608, 622689) identified from SARM1 SAM-TIR lysate screen were added to the reaction at 5 μM. NAD normalized to control at 0 min.
Metabolites were isolated from enzyme reaction mixture by extracting with 1M HClO4, then neutralized with 3M K2CO3, and followed by separation by centrifugation. The supernatant (90 μL) containing the extracted metabolites was mixed with 0.5M Potassium Phosphate buffer (10 μL) and metabolites were analyzed by HPLC (Nexera X2) with KINETEX® (100×3 mm, 2.6 μm; PHENOMENEX®) column and metabolites are monitored with absorbance at 254 nm. Internal standards for NAD+, Nicotinamide (Nam), ADP Ribose (ADPR) were used to generate standard curves for quantification of the respective compounds. The levels for each compound in each experimental sample was normalized to the 0 min time point that was analyzed concurrently.
These analogs were tested using an assay that makes use of a bacterially-expressed tagged version of the SARM1 TIR fragment, as described in Example 2. Displaying this artificial SARM1 TIR domain on a solid surface (i.e. affinity beads) generates an active NAD+ cleavage enzyme.

[3] = molecular target: SARM1 SAM-TIR lysate (Homo sapiens (Human), UniProt Q6SZW1); test: HPLC-based SARM1 SAM-TIR NADase assay 1 (inhibitor screen, NAD+/ADPR ratio); assay type: biochemical
Experimental: NRK1-HEK293T cells were seeded onto 150 cm^2 plates at 20×10^6 cells per plate. The next day, the cells were transfected with 15 μg FCIV-SST (SAM-TIR expression plasmid, SEQ ID NO: 9) using X-[…]™ 9 DNA Transfection Reagent (Roche product #06365787001). The cultures were supplemented with 1 mM NR at time of transfection to minimize toxicity from SAM-TIR overexpression. Forty-eight hours after transfection, cells were harvested, pelleted by centrifugation at 1,000 rpm (Sorvall ST 16R centrifuge, Thermo Fisher), and washed once with cold PBS (0.01 M phosphate buffered saline NaCl 0.138 M; KCl 0.0027 M; pH 7.4). The cells were resuspended in PBS with protease inhibitors (cOmplete™ protease inhibitor cocktail, Roche product #11873580001) and cell lysates were prepared by sonication (Branson Sonifer 450, output=3, 20 episodes of stroke). […] Protein concentration was determined by the Bicinchoninic (BCA) method and used to normalize lysate concentrations. […]
Reaction mixtures were prepared on ice by mixing SARM1 SAM-TIR cell lysate (0.14 μg total protein), compound stock (5 μM final concentration), and PBS (pH 7.4) to a final volume of 12 μl. […] The supernatant was transferred and analyzed by HPLC (Shimadzu Nexera X2) with KINETEX® (100×3 mm, 2.6 μm; PHENOMENEX®) column and metabolites were monitored with absorbance at 254 nm.
To identify inhibitors of SARM1 NADase activity, the levels of NAD+ and the enzymatic cleavage product ADPR in the reactions were quantified by HPLC. From these values, the NAD+/ADPR ratio for each compound was calculated and the ratio used as a measure of NAD+ cleavage activity (Note: there is a small residual but detectable ADPR signal in control samples derived from the HEK293 lysate). […]
The NAD+/ADPR ratio was used to determine the NAD+ cleavage activity of the SARM1 SAM-TIR lysate using the HPLC based assay 1. It will be appreciated that any precise, quantitative method of measuring NAD+ levels could be used for the detection of SARM1 NADase activity. […]

[4] = 10 point curve 0.01-250 uM, read-out: IC50 (μM, ADPR Production)
[5] = 10 point curve 0.01-250 uM, read-out: IC50 (μM, NAD Consumption)
[6] = NAD consumption, 7 point curve 0-about 6 uM, read-out: IC50

SMILES: COc1ccc2c(c1)nc([S+]([O-])Cc1ncc(C)c(OC)c1C)n2C (stereo not shown) [I^A-11, N-methyl omeprazole]
ADPR Production (%) [1]: A (“A” indicating >75%)
NAD Consumption (%) [1]: A (“A” indicating >75%)

SMILES: Cc1c(OCC(F)(F)F)ccnc1CSc1nc2ccccc2[nH]1 [I^A-9, lansoprazole sulfide]
ADPR Production (%) [1]: A (“A” indicating >75%)
NAD Consumption (%) [1]: A (“A” indicating >75%)

Inhibitor [2]: No
Substrate [2]: No
SMILES: NC(=S)c1cccnc1 [Thionicotinamide]

SMILES: NC(=O)c1ccccc1 [Benzamide]
Inhibitor [2]: No
Substrate [2]: No

Inhibitor [2]: No
Substrate [2]: No
SMILES: O=Cc1cccnc1 [Nicotinaldehyde]

Inhibitor [2]: No
Substrate [2]: No
SMILES: CC(=O)c1cccnc1 [3-acetylpyridine]

SMILES: Cc1c(OCC(F)(F)F)ccnc1CS(=O)(=O)c1nc2ccccc2[nH]1 [I^A-10, lansoprazole sulfone]
ADPR Production (%) [1]: A (“A” indicating >75%)
NAD Consumption (%) [1]: A (“A” indicating >75%)

SMILES: NC(=O)C1=CN([C@@H]2O[C@H](COP(=O)(O)OP(=O)(O)OC[C@H]3O[C@@H](n4cnc5c(N)ncnc54)[C@H](OP(=O)(O)O)[C@@H]3O)[C@@H](O)[C@H]2O)C=CC1 [Nicotinamide adenine dinucleotide 2′-phosphate, reduced]
Inhibitor [2]: Unclear

SMILES: NC(=O)c1ccc(N)nc1 [6-aminonicotinamide]
Inhibitor [2]: No
Substrate [2]: No

SMILES: COc1ccc2[nH]c([S+]([O-])Cc3ncc(C)c(OC)c3C)nc2n1 (stereo not shown) [I^A-8, tenatoprazole]
identified as SARM1 NADase inhibitor in initial screening [3]: SARM1 NADase inhibitors
IC50 [1, 4]: 8.7 µM
IC50 [1, 5]: 7.4 µM
ADPR Production (%) [1]: C (“C” indicating <50%)
NAD Consumption (%) [1]: B (“B” indicating between 50%-75%)

IC50 [1, 6]: ~0.7 µM
SMILES: CN(C)c1n/c(=N/c2cccc(Cl)c2)ss1 [I^B-1]

SMILES: NC(=O)c1ccc[n+](C2OC(COP(=O)(O)OP(=O)(O)OCC3OC(n4cnc5c(=O)[nH]cnc54)C(O)C3O)C(O)C2O)c1 (stereo not shown) [Nicotinamide Hypoxanthine dinucleotide]
Inhibitor [2]: inhibitor and Yes
Substrate [2]: substrate and Yes

SMILES: COc1ccc2[n-]c([S+]([O-])Cc3ncc(C)c(OC)c3C)nc2c1.[Na+] (stereo not shown) [I^A-13, sodium esomeprazole]
ADPR Production (%) [1]: B (“B” indicating between 50%-75%)
NAD Consumption (%) [1]: A (“A” indicating >75%)

SMILES: CN(C)c1nc(=Nc2cccc(Cl)c2)ss1 [Compound 622689]
inhibition of NADase activity of purified SARM1 TIR ([2]; compound at 5 μM, 5 μM NAD+): inhibit NADase activity of purified SARM1 TIR

SMILES: Cc1c(OCC(F)(F)F)ccnc1C[S+]([O-])c1nc2ccccc2[nH]1 (stereo not shown) [I^A-2, lansoprazole]
IC50 [1, 4]: 3.3 µM
IC50 [1, 5]: 3.5 µM

SMILES: CN(C)c1n/c(=N/Cc2ccco2)ss1 [I^B-2]
IC50 [1, 6]: ~0.15 µM

Substrate [2]: No
SMILES: NC(=O)C1CCCc2c1[nH]c1ccc(Cl)cc21 (stereo not shown) [Ex-527]

SMILES: NC(=O)c1ccc[n+]([C@@H]2O[C@H](COP(=O)([O-])OP(=O)(O)OC[C@H]3O[C@@H](n4cnc5c4ncn4ccnc54)[C@H](O)[C@@H]3O)[C@@H](O)[C@H]2O)c1 [Nicotinamide 1, N6-ethenoadenine dinucleotide]
Substrate [2]: No

SMILES: COCCCOc1ccnc(C[S+]([O-])c2nc3ccccc3[nH]2)c1C (stereo not shown) [I^A-6, rabeprazole]
inhibition at 10 µM ([3]; at 10 μM, 5 μM NAD): 95%
inhibition at 30 µM ([3]; at 30 μM, 5 μM NAD): 98.8%
IC50 [1, 4]: 3.2 µM
IC50 [1, 5]: 3.3 µM
